Experimental data as given in patent publication US5955578A, “Polypeptide-polymer conjugates active in wound healing” (La Jolla Cancer Research Foundation, priority 1995, dated 1999).
Where no end group is shown, it is not given here. [ ]: non-standard residue; d: D form.

Experiments:
[1] = system: PVA sponges implanted under the skin; experiment: Polyvinylalcohol sponge implant model; type: in vivo, rats
Description: Peptide-hyaluronate conjugates were tested using the model of Davidson, et al., J. Cell Biol. 100: 1219-1227 (1985), which is incorporated herein by reference. This model involves the implantation of inert PVA sponges loaded with the conjugates or control materials under the skin of rats. The sponges were removed from the animals at 4 to 10 days after implantation and analyzed for cell ingrowth number and type and as collagen content, blood vessel formation (angiogenesis) and inflammatory response, as well as persistence of the conjugate in the wound.

[2] = system: full thickness skin incisions; experiment: Wound tensile strength in rat full thickness dermal incisions; type: in vivo, Wistar Furth rats
Description: Wistar Furth adult male rats (175-250g) were anesthetized by intraperitoneal injection of pentobarbital (60 mg/kg body weight). The rats dorsal area was closely shaved, and each animal was positioned and secured for surgery. Using aseptic technique, five full thickness skin incisions, 1.5 cm long, were made on the dorsal area. Each incision was treated with 0.05-0.10 ml of a blind sample of the peptide RRRRRRGDSPK-conjugated to hyaluronate or with 0.05-0.10 ml of human fibronectin (3 mg/ml in PBS, Colloborative Research, Bedford, Mass.) or rat fibronectin (2 mg/ml in PBS, Telios Pharmaceuticals, San Diego, Calif.) or was left untreated as a control. After treatment, the incisions were closed using standard 4-0 nylon sutures for placement of 5 to 7 interrupted sutures. The rats were returned to their cages for recovery and observation. At post operative days 2 through 7 and 10, six animals were anesthetized as above and were euthanized by an intracardiac injection of 0.5 cc of T-61.
Following euthanasia, the pelt was removed from the rat and 5 mm wide by 2 cm long skin strips bisecting incisions were prepared. Histological specimens from the skin adjacent to the tensile strength strip were also taken. To measure tensile strength, one end of the strip was clipped using a 1 mm Michel Clipper (Militex Instruments Co.) which was tied to a Grass model FTO3C force displacement transducer. The other end of the strip was clipped using a light weight hemostat which was attached to a Harvard Model 901 push-pull infusion pump (Harvard Instruments, Millis, Mass.) using cotton thread over a pulley. The transducer was attached to a Grass polygraph (Model 7D) for recording the results. After calibration, the pump was turned on to pull at the rate of 64 mm/min. The amount of force required to pull the skin apart at the incision was recorded on the polygraph.

dry eye condition = experiment: Dry eye syndrome induced by excision of tear ducts; type: in vivo; settings: cats; eye drops from day 17 to day 43; conjugate at 100 mg/ml
Description: The dry eye conditon was induced in six cats on day zero by the excision of tear ducts from the eyes. The cats were divided into two groups and treated as follows:
Group one was treated with two drops of human fibronectin, 3 mg/ml, a day twice a day from day 17 to day 34, and two drops a day three times a day from day 34 to 43. Group two was treated with two drops of chondroitin sulfate-peptide conjugate, G(dR)5 G3 (dR)GDSPASSK 100 mg/ml, a day twice a day from days 17 to 34, and two drops a day three times a day from day 34 to day 43.

[3] = In vitro assays of the type described in Pierschbacher et al. (1983); type: cell-based
[4] = early time points, effect diminishing at later time points

Substance: RRRRRRGDSPK-conjugated to hyaluronate: peptide RRRRRRGDSPK coupled to hyaluronic acid by EDC, method of Example II (also: conjugated to hyaluronic acid by EDC)
- angiogenesis [1, 4]: increased
- collagen secretion [1, 4]: increased
- fibroblast migration [1, 4]: increased
- collagen deposition into the sponges versus control sponges ([1]; up to the end of the experiment): more collagen was continuously deposited
- wound strength, % of the strength of untreated wounds ([2]; day 5 after incision (maximum effect), 0.05-0.10 ml per incision): 211%
- wound strength versus untreated control ([2]; days 3 through 7 after incision): increased

Substance: chondroitin sulfate-peptide conjugate: peptide of Example I, G(dR)5G3(dR)GDSPASSK, coupled to chondroitin sulfate with EDC; 74 mg peptide/g conjugate (G[dR][dR][dR][dR][dR]GGG[dR]GDSPASSK; also: coupled to chondroitin sulfate with EDC)
- dry eye condition (impression cytology, rose bengal staining) (dry eye condition): marked reduction of the dry eye condition

Substance: conjugates employing the peptide G(dR)5 G3 (dR)GDSPASSK: peptide G(dR)5G3(dR)GDSPASSK coupled to hyaluronic acid with EDC, 20 to 30% peptide by weight (G[dR][dR][dR][dR][dR]GGG[dR]GDSPASSK; also: coupled to hyaluronic acid with EDC)
- in vitro activity compared with the conjugate of Example V [3]: more activity than the RGGDSPK peptide conjugate
- wound strength, % of control ([2]; day 2): 160%
- wound strength activity versus control (persistence) ([2]; through day 10): greater than control
